Data from ChEMBL document CHEMBL1154631 (Bioorg Med Chem Lett, 2009).

Assays:
[1] = biological target: Mu-type opioid receptor (Homo sapiens, UniProt P35372)
[2] = biological target: T1, Adenosine receptor A1 (Homo sapiens, UniProt P30542); assay: Binding affinity to adenosine receptor A1
T1 sequence (P30542 whole entry): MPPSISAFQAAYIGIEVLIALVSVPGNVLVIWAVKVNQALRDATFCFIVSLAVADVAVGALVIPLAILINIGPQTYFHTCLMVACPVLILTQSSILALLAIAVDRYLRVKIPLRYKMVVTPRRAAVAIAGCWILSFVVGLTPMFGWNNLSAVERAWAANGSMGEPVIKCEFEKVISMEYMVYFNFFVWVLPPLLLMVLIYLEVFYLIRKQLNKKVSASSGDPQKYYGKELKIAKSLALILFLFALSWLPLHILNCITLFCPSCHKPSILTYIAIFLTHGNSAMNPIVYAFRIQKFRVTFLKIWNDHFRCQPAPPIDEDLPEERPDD

Sequence of Mu-type opioid receptor (P35372 whole entry): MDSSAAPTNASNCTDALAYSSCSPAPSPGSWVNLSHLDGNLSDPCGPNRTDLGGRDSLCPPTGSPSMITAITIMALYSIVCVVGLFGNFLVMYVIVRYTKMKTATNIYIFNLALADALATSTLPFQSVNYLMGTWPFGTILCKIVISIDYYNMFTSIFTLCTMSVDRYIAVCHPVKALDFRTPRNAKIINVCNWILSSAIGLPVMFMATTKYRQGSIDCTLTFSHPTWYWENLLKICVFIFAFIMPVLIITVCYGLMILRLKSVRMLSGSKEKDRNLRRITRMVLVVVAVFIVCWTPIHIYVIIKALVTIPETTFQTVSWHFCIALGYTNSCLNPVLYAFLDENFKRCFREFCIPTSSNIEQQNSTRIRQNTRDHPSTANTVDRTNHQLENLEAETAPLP

Structure (SMILES)	Ki [1]	Ki [2]
CCCn1c(=O)c2[nH]c(C3CCCC3)nc2n(CCC)c1=O [1,3-DIPROPYL-8-CYCLOPENTYLXANTHINE [DPCPX]]	> 100 µM	–
C[C@@H](NC(=O)[C@@H](N)Cc1ccc(O)cc1)C(=O)NCC(=O)N(C)[C@@H](Cc1ccccc1)C(=O)NCCO [DAMGO]	–	> 100 µM
C=CCN1CC[C@]23c4c5ccc(O)c4O[C@H]2C(=O)CC[C@@]3(O)[C@H]1C5 [NALOXONE]	–	> 50 µM
